Data from ChEMBL document CHEMBL1145381, “Synthesis and antiviral property of allophenylnorstatine-based HIV protease inhibitors incorporating D-cysteine derivatives as P2/P3 moieties” (Bioorg Med Chem Lett, 2007).
pEC50, pIC50: −log10 of the molar value.

Experiments:
[1] = Selectivity index, Ratio of LC50 for MT4 cells to EC50 for HIV1 3B; type: functional
[2] = tested on: Human immunodeficiency virus; assay: Inhibition of HIV protease at 1 nM
[3] = tested on: Human immunodeficiency virus 1; assay: Antiviral activity against HIV1 3B in MT4 cells by MTT assay; type: functional, organism-based; conditions: Human immunodeficiency virus 1, 3B
[4] = Inhibition of HIV protease; set-up: species or system Human immunodeficiency virus
[5] = Cytotoxicity against MT4 cells by MTT assay; type: cell-based; conditions: human, read-out: LC50 (the source's name)
[6] = tested on: Human immunodeficiency virus 1; assay: Antiviral activity against nelfinavir-resistant HIV1 NL432; type: functional, organism-based; conditions: Human immunodeficiency virus 1, NL432
[7] = tested on: Human immunodeficiency virus 1; assay: Antiviral activity against ritonavir-resistant HIV1 NL432; type: functional, organism-based; conditions: Human immunodeficiency virus 1, NL432
[8] = tested on: Human immunodeficiency virus 1; assay: Antiviral activity against HIV1 NL432; type: functional, organism-based; conditions: Human immunodeficiency virus 1, NL432
[9] = tested on: Human immunodeficiency virus 1; assay: Antiviral activity against ritonavir and nelfinavir-resistant HIV1 NL432; type: functional, organism-based; conditions: Human immunodeficiency virus 1, NL432

SMILES	Selectivity index [1]	inhibition [2] [%]	pEC50 [3]	pIC50 [4]	CC50 [5] [µM]	pEC50 [6]	pEC50 [7]	pEC50 [8]	pEC50 [9]
CC(=O)NC(CS(=O)(=O)c1ccc2ccccc2c1)C(=O)N[C@@H](Cc1ccccc1)[C@H](O)C(=O)N1CSC(C)(C)[C@H]1C(=O)NCc1ccccc1C (stereo partly specified)	571	96	7.55	10.07	16	–	–	–	–
CC(=O)NC(CSc1ccc2ccccc2c1)C(=O)N[C@@H](Cc1ccccc1)[C@H](O)C(=O)N1CSC(C)(C)[C@H]1C(=O)NCc1ccccc1C (stereo partly specified)	461	53	7.74	–	8.3	8.14	7.19	7.77	7.49
Cc1cc(C)c(NC(CSc2cccc3ccccc23)C(=O)N[C@@H](Cc2ccccc2)[C@H](O)C(=O)N2CSC(C)(C)[C@H]2C(=O)NCc2ccccc2C)c(C)c1 (stereo partly specified)	688	74	8.19	–	4.4	9.17	7.77	8.03	7.89
COc1ccc(CS(=O)(=O)C[C@@H](NC(C)=O)C(=O)N[C@@H](Cc2ccccc2)[C@H](O)C(=O)N2CSC(C)(C)[C@H]2C(=O)NCc2ccccc2C)cc1	>265	59	6.99	–	> 27	–	–	–	–
CC(=O)NC(CS(=O)(=O)c1cccc2ccccc12)C(=O)N[C@@H](Cc1ccccc1)[C@H](O)C(=O)N1CSC(C)(C)[C@H]1C(=O)NCc1ccccc1C (stereo partly specified)	400	97	7.40	10.05	16	–	–	–	–
Cc1ccccc1CNC(=O)[C@H]1N(C(=O)[C@@H](O)[C@H](Cc2ccccc2)NC(=O)C(CS(=O)(=O)c2ccc3ccccc3c2)NS(C)(=O)=O)CSC1(C)C (stereo partly specified)	–	98	–	10.05	–	–	–	–	–
Cc1ccccc1CNC(=O)[C@H]1N(C(=O)[C@@H](O)[C@H](Cc2ccccc2)NC(=O)C(CS(=O)(=O)c2cccc3ccccc23)NS(C)(=O)=O)CSC1(C)C (stereo partly specified)	–	97	–	10.08	–	–	–	–	–
COc1ccc(CS(=O)(=O)C[C@@H](Nc2c(C)cc(C)cc2C)C(=O)N[C@@H](Cc2ccccc2)[C@H](O)C(=O)N2CSC(C)(C)[C@H]2C(=O)NCc2ccccc2C)cc1	>128	66	6.69	–	> 26	–	–	–	–
CSC[C@H](NC(=O)COc1cccc2cnccc12)C(=O)N[C@@H](Cc1ccccc1)[C@H](O)C(=O)N1CSC[C@H]1C(=O)NC(C)(C)C	>1363	40	7.66	–	> 30	–	–	–	–
CC(C)(C)NC(=O)c1ccccc1C[C@H](O)[C@@H](Cc1ccccc1)NC(=O)[C@H](CS(=O)(=O)c1ccc(Cl)cc1)NS(C)(=O)=O	–	–	–	9.47	–	–	–	–	–
Cc1cc(C)c(NC(CSc2ccc3ccccc3c2)C(=O)N[C@@H](Cc2ccccc2)[C@H](O)C(=O)N2CSC(C)(C)[C@H]2C(=O)NCc2ccccc2C)c(C)c1 (stereo partly specified)	469	67	7.89	–	6.1	9.10	7.51	7.77	7.64
CC(=O)NC(CSc1cccc2ccccc12)C(=O)N[C@@H](Cc1ccccc1)[C@H](O)C(=O)N1CSC(C)(C)[C@H]1C(=O)NCc1ccccc1C (stereo partly specified)	471	68	7.89	–	8	8.20	7.74	7.15	7.28
CC(C)c1nc(CN(C)C(=O)N[C@H](C(=O)N[C@@H](Cc2ccccc2)C[C@H](O)[C@H](Cc2ccccc2)NC(=O)OCc2cncs2)C(C)C)cs1 [RITONAVIR]	–	90	7.44	–	–	–	6.66	7.10	6.79
Cc1c(O)cccc1C(=O)N[C@@H](CSc1ccccc1)[C@H](O)CN1C[C@H]2CCCC[C@H]2C[C@H]1C(=O)NC(C)(C)C	688	29	7.80	–	11	6.51	7.55	7.60	7.17
COc1ccc(CSC[C@@H](NC(C)=O)C(=O)N[C@@H](Cc2ccccc2)[C@H](O)C(=O)N2CSC(C)(C)[C@H]2C(=O)NCc2ccccc2C)cc1	1308	87	7.89	9.74	17	8.62	7.74	7.77	7.85
